# Laboratory results from patent publication US20020035097A1, “Method of preventing and treating chemotherapy-induced alopecia” (priority 1991, published 2002).
# Values joined by “and” are separate entries in the source; they are usually repeats but may differ in a detail not shown here. Equal values may be shown once. “Also recorded” adds a separate entry of the source.
# Assays:
# Cytoxan-induced alopecia = Cytoxan-induced alopecia in young rats; format: in vivo, rat; settings: 0.2 μg in 0.15 ml absolute ethanol topically over head and neck, pretreatment; CTX 35 mg/kg one day
# hair growth [1] = test: Stimulation of hair regrowth on shaven backs of rats; format: in vivo, rat
# Description: The backs of nineteen 25 day old Sprague Dawley rats were shaven and randomized in two groups.
# Group I (control 10 rats) received 0.1 ml of ethanol applied topically once daily to the shaven area for 14 days.
# Group II (Calcitriol 9 rats) received 50 ng of 1,25-dihydroxyvitamin D3 in 0.1 ml of ethanol applied topically once daily to the shaven area for 14 days.
# On day 15 stimulation of hair regrowth was assessed by reshaving an area 6 cm×6 cm in diameter. The hair was collected and weighed. The difference between two groups was highly statistically significant. P. value 0.003 (see Table III and FIG. 11).
# [2] = test system: EGF receptors on a cell line established from rat calvaria; settings: literature; cited from earlier work
# VP-16-induced alopecia = test: VP-16 (Etoposide)-induced alopecia in young rats; format: in vivo, rat
# Description: Twelve 7 day old rats were randomized in two groups. Group I was treated daily with buffer 0.1 ml s.c. for four days. The second Group was treated daily with Vitamin D3 50 μg s.c. over head for four days. After stopping the buffer or Vitamin D3 treatment, all rats received 1.5 mg/kg i.p. of VP-16 (Etoposide) daily for three days.
# (§1) 1,25-Dihydroxyvitamin D3 was dissolved in absolute ethanol and applied topically with an applicator. Control animals were similarly treated with the same amount of ethanol. Animals were then kept individually separated for a period of three hours following which the treated area was carefully washed with soap and water and dried. Treatment was given daily beginning on day 5 after birth and ending on day 10.
# (§2) All chemotherapies were given I.P. and started at 11 days of age. CTX, 35 mg/kg, was given for one day only. VP-16, 1.5 mg/kg, was given for three days. For CTX and ADM combination, CTX, 25 mg/kg was given for one day and ADM, 2.5 mg/kg, for three days. At these doses neither CTX nor ADM alone will produce alopecia. Alopecia was recorded on the tenth day from beginning chemotherapy.
# (§3) A total of 4 experiments were carried out. In the first experiment, protection from Cytoxan-induced alopecia was examined. The experimental group was pretreated with 0.2 μg of 1,25-dihydroxyvitamin D3 in 0.15 ml of absolute ethanol applied topically over the head and neck and the control group received 0.15 ml of alcohol. All 10 rats in the control group became totally alopecic. […] The second experiment was carried out under similar conditions to examine protection from VP-16-induced alopecia. All 10 rats in the control group developed total body alopecia. […] The third experiment was designed to examine protection from alopecia induced by Cytoxan-Adriamycin combination. There were 11 rats in each group. Six rats in the control group developed alopecia over the head and neck and 5 rats developed total body alopecia. […] In the fourth experiment, protection from VP-16-induced alopecia was similarly examined except that the dose of 1,25-dihydroxyvitamin D3 was reduced to 0.1 μg in 0.1 ml absolute ethanol applied topically over the head area only. All 10 rats in the control group became completely alopecic.
# as §1, with “RO 23-7553 (1,25 dihydroxy-16-ene-23-yne-cholecalciferol)” for “1,25-Dihydroxyvitamin D3”, “9” for “5”, “14.” for “10.”
# On day 15 all animals received VP-16, 1.5 mg/kg i.p., for three days. Alopecia was recorded on day 25.
# Thirteen rats were randomized in two groups. Experimental group, 7 rats; control group, 6 rats. The experimental group was pretreated with 1 μg of RO 23-7553 in 0.2 ml absolute ethanol applied topically over the neck and back and the control group received 0.2 ml of absolute ethanol. All six rats in the control group became totally alopecic over the neck and back.
# [3] = test system: EGF receptors on breast cancer cells; settings: literature; cited from earlier work
# hair growth [4] = test: Stimulation of hair regrowth on shaven backs of rats; format: in vivo, rat; settings: noted in rats during the chemotherapy-induced alopecia studies
# [5] = test system: Cytoxan/Adriamycin-induced alopecia; test: Cytoxan/Adriamycin combination-induced alopecia in young rats; format: in vivo, rat; settings: 0.2 μg in 0.15 ml absolute ethanol topically over head and neck, pretreatment; 11 rats per group
# Description: Eight 4-day old Sprague Dawley rats were randomized in two groups of 4 rats each. Group I, received EGF […] s.c. on the head daily for 7 days. Group II received buffer injections and served as controls. One day after stopping EGF or buffer injections all rats received Cytoxan 25 mg/kg i.p.×1 day and Adriamycin 2.5 mg/kg i.p.×3 days. […] (FIG. 5).
# as §1
# as §2, with “At these doses neither CTX nor ADM alone will produce alopecia.” left out
# as §3, with “alcohol.” for “alcohol. All 10 rats in the control group became totally alopecic.”, “VP-16-induced” for “VP-16-induced alopecia. All 10 rats in the control group developed total body”, “group.” for “group. Six rats in the control group developed alopecia over the head and neck and 5 rats developed total body alopecia.”, “only.” for “only. All 10 rats in the control group became completely alopecic.”
structure (smiles),measurement,setting,value
"C=C1/C(=C\C=C2/CCC[C@]3(C)[C@@H]([C@H](C)CCCC(C)(C)O)CC[C@@H]23)C[C@@H](O)C[C@@H]1O [1,25-dihydroxyvitamin D3]",Protection from Cytoxan-induced alopecia,Cytoxan-induced alopecia,all animals in the experimental group were protected
same,"Hair Weight, Mean S.E.M.","hair growth [1]; 50 ng in 0.1 ml ethanol topically once daily for 14 days, 9 rats, day 15, P value 0.003 vs control",164 ± 13 Mg
same,Hair Weight (individual rats),"hair growth [1]; 50 ng in 0.1 ml ethanol topically once daily to shaven area for 14 days, 6 cm×6 cm area reshaved on day 15, listed as Calcitriol",130 Mg and 177 Mg and 140 Mg and 147 Mg and 135 Mg and 202 Mg and 143 Mg and 150 Mg and 253 Mg
same,Effect on hair growth,hair growth [1]; administered topically in the rat,stimulation of hair growth
same,Effect on EGF receptors,[2],increase EGF receptors
same,Protection from VP-16-induced alopecia,"VP-16-induced alopecia; 0.1 μg in 0.1 ml absolute ethanol topically over the head area only, pretreatment, VP-16 1.5 mg/kg for three days","protected primarily at the site of 1,25-dihydroxyvitamin D3 application; also recorded: less generalized and was more limited to the site of application"
same,Protection from VP-16-induced alopecia,"VP-16-induced alopecia; 0.2 μg in 0.15 ml absolute ethanol topically over head and neck, pretreatment, VP-16 1.5 mg/kg for three days",all rats in the experimental group were protected
same,Extent of protection,"VP-16-induced alopecia; 0.2 μg topically over head and neck, stated for the CTX, VP-16 and CTX+ADM experiments together",not limited to the site of application but involved the entire body
same,Protection from VP-16-induced alopecia,VP-16-induced alopecia; applied topically 0.5 μg daily in 50% ethanol or DMSO,protected
same,Effect on EGF receptors,[3],increase EGF receptors
same,Coat and hair in the treated area,hair growth [4],better coat of hair and longer hair in the treated area
same,Protection from alopecia induced by Cytoxan-Adriamycin combination,[5],all rats in the experimental group were protected
